Measurements taken from patent US12187723B2 (BRISTOL-MYERS SQUIBB COMPANY, priority 2019, dated 2025).

molecular target: T1, human TLR7 (Homo sapiens, UniProt Q9NYK1); assay: TLR7 inhibition reporter assay (HEK-Blue SEAP); assay type: cell-based; conditions: HEK-Blue cells overexpressing human TLR7, gardiquimod 7.5 μM, 22 hour incubation
T1 construct: host or cells: HEK-Blue cells
T1 sequence (Q9NYK1 27-1049): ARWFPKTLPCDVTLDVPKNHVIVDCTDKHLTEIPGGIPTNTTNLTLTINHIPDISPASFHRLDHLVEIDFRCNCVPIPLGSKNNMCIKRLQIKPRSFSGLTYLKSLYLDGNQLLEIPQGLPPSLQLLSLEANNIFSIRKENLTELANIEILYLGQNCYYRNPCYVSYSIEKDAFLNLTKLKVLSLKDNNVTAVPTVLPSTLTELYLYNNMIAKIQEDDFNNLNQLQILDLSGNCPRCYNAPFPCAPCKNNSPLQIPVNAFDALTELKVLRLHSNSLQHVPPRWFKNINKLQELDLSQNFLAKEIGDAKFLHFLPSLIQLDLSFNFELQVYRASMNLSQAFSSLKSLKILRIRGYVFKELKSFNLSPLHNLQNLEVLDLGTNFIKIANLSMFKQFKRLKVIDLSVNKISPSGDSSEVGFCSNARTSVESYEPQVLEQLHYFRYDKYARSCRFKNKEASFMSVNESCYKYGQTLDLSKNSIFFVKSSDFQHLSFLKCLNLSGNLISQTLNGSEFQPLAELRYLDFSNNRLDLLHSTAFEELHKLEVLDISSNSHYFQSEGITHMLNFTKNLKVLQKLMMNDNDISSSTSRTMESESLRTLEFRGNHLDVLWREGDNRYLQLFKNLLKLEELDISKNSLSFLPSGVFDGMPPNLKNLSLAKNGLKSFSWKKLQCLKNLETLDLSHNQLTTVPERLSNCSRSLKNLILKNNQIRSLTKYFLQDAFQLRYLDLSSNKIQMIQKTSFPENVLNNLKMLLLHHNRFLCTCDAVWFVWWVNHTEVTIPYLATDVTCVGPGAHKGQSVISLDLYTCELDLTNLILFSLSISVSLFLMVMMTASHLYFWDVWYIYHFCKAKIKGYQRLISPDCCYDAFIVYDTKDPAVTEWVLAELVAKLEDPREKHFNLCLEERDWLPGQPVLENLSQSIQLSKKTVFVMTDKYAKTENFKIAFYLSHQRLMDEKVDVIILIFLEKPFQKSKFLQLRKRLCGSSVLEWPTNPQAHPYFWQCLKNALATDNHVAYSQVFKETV
Outline: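 HEK-Blue reporter cells (15,000/well TLR7, 20,000 TLR8) exposed to compound over 0.05 nM–50 μM, agonist-stimulated (R848 for TLR8, gardiquimod for TLR7), 22 h at 37 °C, 5% CO2. SEAP read with HEK-Blue Detection; % inhibition relative to agonist-plus-DMSO and known-inhibitor controls.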

| SMILES | IC50 |
| --- | --- |
| COc1cc(-c2cc3[nH]c(=O)n(C4CCC(N5CC6(C5)CS(=O)(=O)C6)CC4)c3cc2C(C)C)cn2ncnc12 (single isomer, unassigned) [Example 245, 1-(4-(2,2-dioxido-2-thia-6-azaspiro[3.3]heptan-6-yl)cyclohexyl)-6-isopropyl-5-(8-methoxy-[1,2,4]triazolo[1,5-a]pyridin-6-yl)-1,3-dihydro-2H-benzo[d]imidazol-2-one] | 5.96 nM |
| COc1cc(-c2cc3[nH]c(=O)n(C4CCC(N5CCC(F)(F)CC5)CC4)c3cc2C(C)C)cn2ncnc12 (single isomer, unassigned) [Example 246, 1-(4-(4,4-difluoropiperidin-1-yl)cyclohexyl)-6-isopropyl-5-(8-methoxy-[1,2,4]triazolo[1,5-a]pyridin-6-yl)-1,3-dihydro-2H-benzo[d]imidazol-2-one] | 2.81 nM |
| COc1cc(-c2cc3[nH]c(=O)n(C4CCC(N5CCC(F)(F)CC5)CC4)c3cc2C(C)C)cn2ncnc12 (single isomer, unassigned) [Example 247, 1-(4-(4,4-difluoropiperidin-1-yl)cyclohexyl)-6-isopropyl-5-(8-methoxy-[1,2,4]triazolo[1,5-a]pyridin-6-yl)-1,3-dihydro-2H-benzo[d]imidazol-2-one] | 30.2 nM |
| COc1cc(-c2cc3[nH]c(=O)n(C4CCC(N5C6CCC5COC6)CC4)c3cc2C(C)C)cn2ncnc12 (single isomer, unassigned) [Example 252, 1-(4-(3-oxa-8-azabicyclo[3.2.1]octan-8-yl)cyclohexyl)-6-isopropyl-5-(8-methoxy-[1,2,4]triazolo[1,5-a]pyridin-6-yl)-1,3-dihydro-2H-benzo[d]imidazol-2-one] | 40.5 nM |
| COc1cc(-c2cc3[nH]c(=O)n(C4CCC(N5C6CCC5COC6)CC4)c3cc2C(C)C)cn2ncnc12 (single isomer, unassigned) [Example 253, 1-(4-(3-oxa-8-azabicyclo[3.2.1]octan-8-yl)cyclohexyl)-6-isopropyl-5-(8-methoxy-[1,2,4]triazolo[1,5-a]pyridin-6-yl)-1,3-dihydro-2H-benzo[d]imidazol-2-one] | 4.75 nM |
| COc1c(C)c(-c2cc3[nH]c(=O)n(C4CCC(NCC5(S(C)(=O)=O)CC5)CC4)c3cc2C(C)C)cn2ncnc12 (single isomer, unassigned) [Example 260] | 41.5 nM |
| COc1c(C)c(-c2cc3[nH]c(=O)n(C4CCC(N5CC(F)C5)CC4)c3cc2C(C)C)cn2ncnc12 (single isomer, unassigned) [Example 264, 1-(4-(3-fluoroazetidin-1-yl)cyclohexyl)-6-isopropyl-5-(8-methoxy-7-methyl-[1,2,4]triazolo[1,5-a]pyridin-6-yl)-1,3-dihydro-2H-benzo[d]imidazol-2-one] | 28.4 nM |
| COc1c(C)c(-c2cc3[nH]c(=O)n(C4CCC(N5CCC6(CC5)COC6)CC4)c3cc2C(C)C)cn2ncnc12 (single isomer, unassigned) [Example 267, 1-(4-(2-oxa-7-azaspiro[3.5]nonan-7-yl)cyclohexyl)-6-isopropyl-5-(8-methoxy-7-methyl-[1,2,4]triazolo[1,5-a]pyridin-6-yl)-1,3-dihydro-2H-benzo[d]imidazol-2-one] | 2.1 nM |
| COc1c(C)c(-c2cc3[nH]c(=O)n(C4CCC(N5CC6(COC6)C5)CC4)c3cc2C(C)C)cn2ncnc12 (single isomer, unassigned) [Example 270, 1-(4-(2-oxa-6-azaspiro[3.3]heptan-6-yl)cyclohexyl)-6-isopropyl-5-(8-methoxy-7-methyl-[1,2,4]triazolo[1,5-a]pyridin-6-yl)-1,3-dihydro-2H-benzo[d]imidazol-2-one] | 19.3 nM |
| COC1CN(C2CCC(n3c(=O)[nH]c4cc(-c5cn6ncnc6c(C)c5C)c(C(C)C)cc43)CC2)C1 (single isomer, unassigned) [Example 277, 5-(7,8-dimethyl-[1,2,4]triazolo[1,5-a]pyridin-6-yl)-6-isopropyl-1-(4-(3-methoxyazetidin-1-yl)cyclohexyl)-1,3-dihydro-2H-benzo[d]imidazol-2-one] | 2.39 nM |

Results, then the compound that gave them:

| IC50 | SMILES |
| --- | --- |
| 1.12 nM | COc1cc(-c2cc3[nH]c(=O)n(C4CCC(N(C)CCC(F)(F)F)CC4)c3cc2C(C)C)cn2ncnc12 (single isomer, unassigned) [Example 248, 6-isopropyl-5-(8-methoxy-[1,2,4]triazolo[1,5-a]pyridin-6-yl)-1-(4-(methyl(3,3,3-trifluoropropyl)amino)cyclohexyl)-1,3-dihydro-2H-benzo[d]imidazol-2-one] |
| 0.5 nM | COc1cc(-c2cc3[nH]c(=O)n(C4CCC(N(C)CCC(F)(F)F)CC4)c3cc2C(C)C)cn2ncnc12 (single isomer, unassigned) [Example 249, 6-isopropyl-5-(8-methoxy-[1,2,4]triazolo[1,5-a]pyridin-6-yl)-1-(4-(methyl(3,3,3-trifluoropropyl)amino)cyclohexyl)-1,3-dihydro-2H-benzo[d]imidazol-2-one] |
| 10.4 nM | COc1c(C)c(-c2cc3[nH]c(=O)n(C4CCC(NCC5(S(C)(=O)=O)CC5)CC4)c3cc2C(C)C)cn2ncnc12 (single isomer, unassigned) [Example 259] |
| 15.5 nM | COc1c(C)c(-c2cc3[nH]c(=O)n(C4CCC(N5CCCOCC5)CC4)c3cc2C(C)C)cn2ncnc12 (single isomer, unassigned) [Example 261, 1-(4-(1,4-oxazepan-4-yl)cyclohexyl)-6-isopropyl-5-(8-methoxy-7-methyl-[1,2,4]triazolo[1,5-a]pyridin-6-yl)-1,3-dihydro-2H-benzo[d]imidazol-2-one] |
| 2.3 nM | COc1c(C)c(-c2cc3[nH]c(=O)n(C4CCC(N5CCCOCC5)CC4)c3cc2C(C)C)cn2ncnc12 (single isomer, unassigned) [Example 262, 1-(4-(1,4-oxazepan-4-yl)cyclohexyl)-6-isopropyl-5-(8-methoxy-7-methyl-[1,2,4]triazolo[1,5-a]pyridin-6-yl)-1,3-dihydro-2H-benzo[d]imidazol-2-one] |
| 7.93 nM | COc1c(C)c(-c2cc3[nH]c(=O)n(C4CCC(N5CC(F)C5)CC4)c3cc2C(C)C)cn2ncnc12 (single isomer, unassigned) [Example 263, 1-(4-(3-fluoroazetidin-1-yl)cyclohexyl)-6-isopropyl-5-(8-methoxy-7-methyl-[1,2,4]triazolo[1,5-a]pyridin-6-yl)-1,3-dihydro-2H-benzo[d]imidazol-2-one] |
| 15.8 nM | COc1c(C)c(-c2cc3[nH]c(=O)n(C4CCC(N5CCC6(CC5)COC6)CC4)c3cc2C(C)C)cn2ncnc12 (single isomer, unassigned) [Example 268, 1-(4-(2-oxa-7-azaspiro[3.5]nonan-7-yl)cyclohexyl)-6-isopropyl-5-(8-methoxy-7-methyl-[1,2,4]triazolo[1,5-a]pyridin-6-yl)-1,3-dihydro-2H-benzo[d]imidazol-2-one] |
| 5.73 nM | COc1c(C)c(-c2cc3[nH]c(=O)n(C4CCC(N5CC6(COC6)C5)CC4)c3cc2C(C)C)cn2ncnc12 (single isomer, unassigned) [Example 269, 1-(4-(2-oxa-6-azaspiro[3.3]heptan-6-yl)cyclohexyl)-6-isopropyl-5-(8-methoxy-7-methyl-[1,2,4]triazolo[1,5-a]pyridin-6-yl)-1,3-dihydro-2H-benzo[d]imidazol-2-one] |
| 13.7 nM | Cc1c(-c2cc3[nH]c(=O)n(C4CCC(N5CCC(F)(F)CC5)CC4)c3cc2C(C)C)cn2ncnc2c1C (single isomer, unassigned) [Example 275, 1-(4-(4,4-difluoropiperidin-1-yl)cyclohexyl)-5-(7,8-dimethyl-[1,2,4]triazolo[1,5-a]pyridin-6-yl)-6-isopropyl-1,3-dihydro-2H-benzo[d]imidazol-2-one] |
| 61.7 nM | Cc1c(-c2cc3[nH]c(=O)n(C4CCC(N5CCC(F)(F)CC5)CC4)c3cc2C(C)C)cn2ncnc2c1C (single isomer, unassigned) [Example 276, 1-(4-(4,4-difluoropiperidin-1-yl)cyclohexyl)-5-(7,8-dimethyl-[1,2,4]triazolo[1,5-a]pyridin-6-yl)-6-isopropyl-1,3-dihydro-2H-benzo[d]imidazol-2-one] |
| 7.88 nM | COC1CN(C2CCC(n3c(=O)[nH]c4cc(-c5cn6ncnc6c(C)c5C)c(C(C)C)cc43)CC2)C1 (single isomer, unassigned) [Example 278, 5-(7,8-dimethyl-[1,2,4]triazolo[1,5-a]pyridin-6-yl)-6-isopropyl-1-(4-(3-methoxyazetidin-1-yl)cyclohexyl)-1,3-dihydro-2H-benzo[d]imidazol-2-one] |
